Reference: patent US8324390B2, “Tetrazole-substituted anthranilamides as pesticides” (Bayer CropScience AG, priority 2008, dated 2012)
Like-named read-outs stand apart in the source and are kept apart here.

Experiments:
[1] = log P determination by HPLC (EEC Directive 79/831 Annex V.A8); assay type: physicochemical
Method: The measurements were carried out using an Agilent 1100 LC system with a 50*4.6 Zorbax Eclipse C18 1.8 μm column (oven temperature 55° C., flow rate 2.0 ml/min).
The following mobile phases were used:
Mobile phase A: acetonitrile+1000 μl of formic acid/l
Mobile phase B: Millipore water+900 μl of formic acid/l

[2] = system: caterpillars of the armyworm (Spodoptera frugiperda); assay: Spodoptera frugiperda test (SPODFR spray treatment); assay type: in vivo; conditions: Spodoptera frugiperda, foliar, read-out: effect in % (caterpillars killed)
Source text: (§1) Solvent: 78.0 parts by weight of acetone

Lucilia cuprina larvae = assay: Lucilia cuprina test (LUCICU); assay type: in vivo; conditions: read-out: kill in % (larvae killed)
Method: (§2) Solvent: dimethyl sulphoxide
Vessels containing horse meat treated with the active compound preparation of the desired concentration are populated with Lucilia cuprina larvae.
(§3) After the desired period of time, the kill in % is determined.

Boophilus microplus = Boophilus microplus test (BOOPMI injection); assay type: in vivo; conditions: Rhipicephalus microplus, read-out: effect in % (no fertile eggs laid)
Method: as §2
The solution of active compound is injected into the abdomen (Boophilus microplus), and the animals are transferred into dishes and kept in a climatised room. The activity is assessed by […] of fertile eggs.
100% means that none of the ticks has laid any fertile eggs.

[3] = system: larvae of the mustard beetle (Phaedon cochleariae); assay: Phaedon test (PHAECO spray treatment); conditions: Phaedon cochleariae, in Brassica rapa, foliar, read-out: effect in % (beetle larvae killed)
[4] = system: two-spotted spidermite (Tetranychus urticae); assay: Tetranychus urticae test; OP-resistant (TETRUR spray application); assay type: in vivo; conditions: read-out: mortality in % (spider mites killed)
Source text: Solvent: 78.0 parts by weight acetone
• 1.5 parts by weight dimethylformamide Emulsifier 0.5 part by weight alkylaryl polyglycol ether
French beans (Phaseolus vulgaris) which are heavily infested with all stages of the two-spotted spidermite (Tetranychus urticae) are sprayed with a preparation of the active compound at the desired concentration.

[5] = system: green peach aphid (Myzus persicae); assay: Myzus test (MYZUPE spray treatment); assay type: in vivo; conditions: Myzus persicae, foliar, read-out: effect in % (aphids killed)
Source text: Solvent: 78 parts by weight of acetone
as §1

adult Musca domestica = assay: Musca domestica test (MUSCDO); assay type: in vivo; conditions: treated sponge, read-out: kill in % (flies killed)
Method: as §2
Vessels containing a sponge treated with the active compound preparation of the desired concentration are populated with adult Musca domestica.
as §3

[6] = application rate 100 g/ha, maize leaf discs
[7] = 20 μg/animal, injection into the abdomen
[8] = by HPLC according to EEC Directive 79/831 Annex V.A8, read-out: log P

Row | chromatographic logP ([1]; reversed-phase HPLC, Zorbax Eclipse C18 column, by HPLC according to EEC Directive 79/831 Annex V.A8, read-out: log P) | SMILES | pest or weed control at 100 g/ha [2, 6] | pest or weed control at 100 ppm (Lucilia cuprina larvae; 100 ppm, treated horse meat) | pest or weed control at 0.02 mg (Boophilus microplus; [7]) | pest or weed control at 100 g/ha [3] | chromatographic logP ([1]; log P) | pest or weed control at 100 g/ha ([2]; in Zea mays) | mortality at 20 g/ha [4] | chromatographic logP ([1]; reversed-phase HPLC, Zorbax Eclipse C18 column, determined by HPLC according to EEC Directive 79/831 Annex V.A8, read-out: log P) | pest or weed control at 100 g/ha ([5]; application rate 100 g/ha, Chinese cabbage leaf discs) | chromatographic logP [1, 8] | pest or weed control at 100 g/ha ([5]; in Brassica rapa) | pest or weed control at 100 ppm (Lucilia cuprina larvae; in Equus caballus) | pest or weed control at 0.02 mg (Boophilus microplus) | pest or weed control at 100 ppm (adult Musca domestica)
1 | 3.52 | Cc1cc(Br)cc(C(=O)NC2CC2)c1NC(=O)c1cc(Cn2nnc(C(F)(F)F)n2)nn1-c1ncccc1C(F)(F)F [Example 229] | ≥ 80% | ≥ 80% | ≥ 80% | ≥ 80% |  |  |  |  |  |  |  |  |  | 
2 |  | Cc1cc(Cl)cc(C(=O)NC(C)C)c1NC(=O)c1cc(Cn2nnc(C(F)(C(F)(F)F)C(F)(F)F)n2)nn1-c1ncccc1Cl [Example 363] |  |  |  | ≥ 80% | 4.21 | ≥ 80% | ≥ 80% |  |  |  |  |  |  | 
3 |  | CNC(=O)c1cc(Cl)cc(C)c1NC(=O)c1cc(Cn2nnnc2C(F)(F)F)nn1-c1ccc(Cl)cc1Cl [Example 449] | ≥ 80% |  |  | ≥ 80% |  |  | ≥ 80% | 3.64 | ≥ 80% |  |  |  |  | 
4 |  | Cc1cc(C#N)cc(C(N)=O)c1NC(=O)c1cc(Cn2nnc(C(F)(F)C(F)(F)C(F)(F)F)n2)nn1-c1ncccc1Cl [Example 7] |  |  |  | ≥ 80% |  | ≥ 80% |  |  |  | 3.17 | ≥ 80% | ≥ 80% | ≥ 80% | ≥ 80%
5 |  | CNC(=O)c1cc(Cl)cc(C)c1NC(=O)c1cc(Cn2nnc(C(F)(F)F)n2)nn1-c1ncccc1Cl [Example 11] |  |  | ≥ 80% | ≥ 80% | 3.05 | ≥ 80% |  |  |  |  | ≥ 80% | ≥ 80% |  | ≥ 80%
6 |  | CNC(=O)c1cc(Cl)cc(C)c1NC(=O)c1cc(Cn2nnc(C(F)(F)C(F)(F)C(F)(F)F)n2)nn1-c1ncccc1Cl [Example 2] |  |  |  | ≥ 80% |  | ≥ 80% |  |  |  | 3.75 | ≥ 80% | ≥ 80% | ≥ 80% | ≥ 80%
7 |  | Cc1cc(C#N)cc(C(=O)NC(C)C)c1NC(=O)c1cc(Cn2nnc(C(F)(F)C(F)(F)C(F)(F)F)n2)nn1-c1ncccc1Cl [Example 6] |  |  |  | ≥ 80% |  | ≥ 80% |  |  |  | 3.82 |  | ≥ 80% | ≥ 80% | 
8 |  | Cc1cc(I)cc(C(=O)NC(C)(C)C)c1NC(=O)c1cc(Cn2nnc(C(F)(F)C(F)(F)F)n2)nn1-c1ncccc1Cl [Example 218] |  |  | ≥ 80% | ≥ 80% | 4.5 | ≥ 80% |  |  |  |  |  | ≥ 80% |  | ≥ 80%
9 |  | Cc1cc(Cl)cc(C(=O)NC(C)C)c1NC(=O)c1cc(Cn2nnnc2C(F)(F)F)nn1-c1ncccc1Cl [Example 162] |  |  |  | ≥ 80% | 3.12 | ≥ 80% |  |  |  |  | ≥ 80% |  |  | ≥ 80%
10 |  | Cc1cc(Cl)cc(C(N)=O)c1NC(=O)c1cc(Cn2nnc(C(F)(F)C(F)(F)C(F)(F)F)n2)nn1-c1ncccc1Cl [Example 3] |  |  |  | ≥ 80% |  | ≥ 80% |  |  |  | 3.49 |  | ≥ 80% | ≥ 80% | ≥ 80%
11 |  | CNC(=O)c1cc(Cl)cc(Cl)c1NC(=O)c1cc(Cn2nnc(C(F)(F)C(F)(F)F)n2)nn1-c1ncccc1Cl [Example 222] |  |  | ≥ 80% | ≥ 80% | 3.34 | ≥ 80% |  |  |  |  | ≥ 80% | ≥ 80% |  | 
12 |  | CNC(=O)c1cc(C#N)cc(C)c1NC(=O)c1cc(Cn2nnc(C(F)(F)C(F)(F)C(F)(F)F)n2)nn1-c1ncccc1Cl [Example 5] |  |  |  | ≥ 80% |  | ≥ 80% |  |  |  | 3.43 | ≥ 80% | ≥ 80% | ≥ 80% | ≥ 80%
13 |  | CC(C)(C)NC(=O)c1cc(Cl)cc(Cl)c1NC(=O)c1cc(Cn2nnc(C(F)(F)C(F)(F)F)n2)nn1-c1ncccc1Cl [Example 223] |  |  | ≥ 80% | ≥ 80% | 4.16 | ≥ 80% |  |  |  |  | ≥ 80% | ≥ 80% |  | ≥ 80%
14 |  | Cc1cc(F)cc(C(=O)NC2CC2)c1NC(=O)c1cc(Cn2nnc(C(F)(F)C(F)(F)F)n2)nn1-c1ncccc1Cl [Example 220] |  |  | ≥ 80% | ≥ 80% | 3.3 | ≥ 80% |  |  |  |  | ≥ 80% | ≥ 80% |  | 
15 |  | Cc1cc(F)cc(C(=O)NC(C)C)c1NC(=O)c1cc(Cn2nnc(C(F)F)n2)nn1-c1ncccc1Cl [Example 295] |  |  | ≥ 80% | ≥ 80% | 2.64 | ≥ 80% |  |  |  |  | ≥ 80% | ≥ 80% |  | 
16 |  | CNC(=O)c1cc(C)cc(C)c1NC(=O)c1cc(Cn2nnnc2C(F)(F)F)nn1-c1ncccc1Cl [Example 178] |  |  |  | ≥ 80% | 2.48 | ≥ 80% |  |  |  |  | ≥ 80% |  |  | ≥ 80%
17 |  | Cc1cc(C#N)cc(C(=O)NC2CC2)c1NC(=O)c1cc(Cn2nnc(C(F)(F)F)n2)nn1-c1ncccc1Cl [Example 13] |  |  | ≥ 80% | ≥ 80% | 2.84 | ≥ 80% |  |  |  |  | ≥ 80% | ≥ 80% |  | ≥ 80%
18 |  | Cc1cc(C#N)cc(C(=O)NC(C)C)c1NC(=O)c1cc(Cn2nnc(C(F)(F)F)n2)nn1-c1ncccc1Cl [Example 10] |  |  | ≥ 80% | ≥ 80% | 3.07 | ≥ 80% |  |  |  |  |  | ≥ 80% |  | ≥ 80%
